{"source": "patent US20030022826A1", "about": "“Use of synthetic peptides to induce tolerance to pathogenic T and B cell epitopes of autoantigens or infectious agents” (priority 1987, published 2003)", "key": {"[1]": {"test_system": "circulating chimpanzee T, B or NK cell populations", "test": "Absolute numbers of lymphocytes and lymphocyte subsets by flow cytometry during immunization", "type": "in vivo", "conditions": "for B cells, % Change / T cells, % Change / Total Lymphocytes, % Change / NK cells, % Change: before vs during immunization; for average drop of T cell levels: during the immunization period; for B cells, During / NK cells, During / T cells, During / Total Lymphocytes, During: mean, months 2-14 of immunization, n = 11", "text": "Flow Cytometry: Chimpanzee PB mononuclear cells were studied by standard flow cytometry methods using a flow cytometer (751; Coulter Electronics, Inc., Hialeah, Fla.). PB lymphocytes were identified by the following markers; total T cells, CD3; T cell subunits, CD4 and CD8; B cells, CD19; and NK cells, CD56 and CD16."}, "[2]": {"test": "DSP cross-linking and SDS-PAGE analysis of peptide complexes", "type": "physicochemical", "conditions": "DSP cross-linking in the presence of Triton-X 100 1%", "protocol": "Lanes D,E,F, and G show the effect on peptide MW when the peptide is cross-linked with 6.25 μg (D), 12.5 μg (E), 25 μg (F) and 50 μg (G) of DSP prior to SDS-PAGE. […] At present, the nature of the two bands in this peptide under reducing conditions is unknown; these two bands can be purified by cutting the bands out of preparative gels and can be analyzed by mass spectroscopy and sequenced. Lanes A and B show the results of crosslinking F-T1-SP10IIIB(A) peptide in the presence to Triton-X 100 1% and run under reducing (A) and non-reducing conditions (B)."}, "PHA": {"test_system": "PHA", "test": "PBMC proliferative responses to PHA in immunized chimpanzees", "type": "in vivo, chimpanzee", "conditions": "animals 1045 and 1070; throughout the immunization period", "text": "Acpm=experimental cpm—control cpm."}}}
{"smiles": "CC[C@H](C)[C@H](NC(=O)[C@@H](NC(=O)[C@@H](NC(=O)[C@H](Cc1ccccc1)NC(=O)[C@H](C)NC(=O)[C@H](CCCNC(=N)N)NC(=O)CNC(=O)[C@@H]1CCCN1C(=O)CNC(=O)[C@H](CCCNC(=N)N)NC(=O)[C@H](CCC(N)=O)NC(=O)[C@@H](NC(=O)[C@H](CCCNC(=N)N)NC(=O)[C@@H](NC(=O)[C@H](CO)NC(=O)[C@H](CCCCN)NC(=O)[C@H](CCCNC(=N)N)NC(=O)[C@@H](NC(=O)[C@H](CC(N)=O)NC(=O)[C@H](CC(N)=O)NC(=O)[C@H](CC(N)=O)NC(=O)[C@@H]1CCCN1C(=O)[C@H](CCCNC(=N)N)NC(=O)[C@@H](NC(=O)[C@H](CS)NC(=O)[C@H](C)NC(=O)[C@H](Cc1ccc(O)cc1)NC(=O)[C@H](CCSC)NC(=O)[C@H](C)NC(=O)[C@H](CCCCN)NC(=O)CNC(=O)[C@@H](NC(=O)[C@H](CCC(=O)O)NC(=O)[C@H](CCC(N)=O)NC(=O)[C@H](Cc1c[nH]c2ccccc12)NC(=O)[C@H](CCSC)NC(=O)[C@H](CC(N)=O)NC(=O)[C@@H](NC(=O)[C@@H](NC(=O)[C@H](CCC(N)=O)NC(=O)[C@H](CCCCN)NC(=O)[C@H](CC(C)C)NC(=O)[C@H](Cc1ccccc1)NC(=O)CNC(=O)[C@H](CC(C)C)NC(=O)[C@H](Cc1ccccc1)NC(=O)[C@H](CC(C)C)NC(=O)[C@H](C)NC(=O)CNC(=O)[C@@H](NC(=O)CNC(=O)[C@@H](NC(=O)[C@H](C)N)C(C)C)[C@@H](C)CC)[C@@H](C)CC)[C@@H](C)CC)C(C)C)[C@@H](C)O)[C@@H](C)O)[C@@H](C)CC)[C@@H](C)CC)C(C)C)[C@@H](C)O)C(=O)O", "note": "[F-T1-SP10IIIB(A)]", "values": [{"measurement": "lymphocyte count", "setting": "[1]; animal 1045, week 12", "result": "650 /mm^3"}, {"measurement": "B cells, % Change", "setting": "[1]; chimpanzee 1045, § p > .005", "result": "−40", "unit": "%§"}, {"measurement": "T cells, % Change", "setting": "[1]; chimpanzee 1045, † p > .001", "result": "−59", "unit": "%†"}, {"measurement": "Total Lymphocytes, % Change", "setting": "[1]; chimpanzee 1045, † p > .001", "result": "−55", "unit": "%†"}, {"measurement": "NK cells, % Change", "setting": "[1]; chimpanzee 1045, ‡ p > .02", "result": "−45", "unit": "%‡"}, {"measurement": "average drop of T cell levels", "setting": "[1]; chimpanzee 1045, p>0.001 as printed", "result": 59, "unit": "%"}, {"measurement": "B cells, During", "setting": "[1]; chimpanzee 1045", "result": 175, "unit": "Cells/mm^3"}, {"measurement": "NK cells, During", "setting": "[1]; chimpanzee 1045", "result": 61, "unit": "Cells/mm^3"}, {"measurement": "T cells, During", "setting": "[1]; chimpanzee 1045", "result": 1012, "unit": "Cells/mm^3"}, {"measurement": "Total Lymphocytes, During", "setting": "[1]; chimpanzee 1045", "result": 1426, "unit": "Cells/mm^3"}, {"measurement": "B cells, % Change", "setting": "[1]; chimpanzee 1070", "result": "−23", "unit": "%"}, {"measurement": "NK cells, % Change", "setting": "[1]; chimpanzee 1070", "result": "−36", "unit": "%"}, {"measurement": "Total Lymphocytes, % Change", "setting": "[1]; chimpanzee 1070", "result": "−30", "unit": "%"}, {"measurement": "T cells, % Change", "setting": "[1]; chimpanzee 1070, ‡ p > .02", "result": "−44", "unit": "%‡"}, {"measurement": "average drop of T cell levels", "setting": "[1]; chimpanzee 1070, p>0.02 as printed", "result": 44, "unit": "%"}, {"measurement": "B cells, During", "setting": "[1]; chimpanzee 1070", "result": 232, "unit": "Cells/mm^3"}, {"measurement": "NK cells, During", "setting": "[1]; chimpanzee 1070", "result": 306, "unit": "Cells/mm^3"}, {"measurement": "T cells, During", "setting": "[1]; chimpanzee 1070", "result": 1887, "unit": "Cells/mm^3"}, {"measurement": "Total Lymphocytes, During", "setting": "[1]; chimpanzee 1070", "result": 2768, "unit": "Cells/mm^3"}, {"measurement": "effect on circulating lymphocyte levels", "setting": "[1]; chimpanzees, F-derivatized peptide in 1045 and 1070, Th-B in 884 and 1028", "result": "induced decreases in absolute levels of circulating T cells"}, {"measurement": "stability of high MW complexes to detergent", "setting": "[2]", "result": "resistant to disruption by this detergent"}, {"measurement": "PBMC PHA responses", "setting": "PHA", "result": "normal"}]}
